Data set [1] concerns the target T1, Nociceptin receptor (Homo sapiens, UniProt P41146). The data set is described as follows: Displacement of [125I]Tyr14-NC/OFQ from human ORL1 receptor.
For another data set, the target named is Mu-type opioid receptor (Homo sapiens, UniProt P35372). Description: Displacement of [3H]diprenorphin from human cloned mu opioid receptor expressed in CHO cells. In kind it is cell-based. (Loss of bound radioactivity is the signal in a displacement assay; it reports binding, not function.)
Data set [2] addresses T1, Nociceptin receptor. Description: Antagonist activity at ORL1 receptor expressed in CHO cells assessed as inhibition of NC/OFQ-stimulated [35S]GTPgammaS binding. In kind it is functional, cell-based. On the technique in general: GTPγS is a poorly hydrolysed GTP analogue; its binding reports G protein activation.
Data set [3] has as its target Voltage-gated inwardly rectifying potassium channel KCNH2 (Homo sapiens, UniProt Q12809). Description: Displacement of [35S]MK499 from human ERG expressed in HEK293 cells.
Data set [4] deals with Kappa-type opioid receptor (Homo sapiens, UniProt P41145). The data set is described as follows: Displacement of [3H]U69593 from human cloned kappa opioid receptor expressed in CHO cells. In kind it is cell-based.
Data set [5] in a line: Lipophilicity, log D at pH 7.4 by shake-flask method. It counts as physicochemical. Particulars: buffer.

Sequence of Voltage-gated inwardly rectifying potassium channel KCNH2 (Q12809 whole entry): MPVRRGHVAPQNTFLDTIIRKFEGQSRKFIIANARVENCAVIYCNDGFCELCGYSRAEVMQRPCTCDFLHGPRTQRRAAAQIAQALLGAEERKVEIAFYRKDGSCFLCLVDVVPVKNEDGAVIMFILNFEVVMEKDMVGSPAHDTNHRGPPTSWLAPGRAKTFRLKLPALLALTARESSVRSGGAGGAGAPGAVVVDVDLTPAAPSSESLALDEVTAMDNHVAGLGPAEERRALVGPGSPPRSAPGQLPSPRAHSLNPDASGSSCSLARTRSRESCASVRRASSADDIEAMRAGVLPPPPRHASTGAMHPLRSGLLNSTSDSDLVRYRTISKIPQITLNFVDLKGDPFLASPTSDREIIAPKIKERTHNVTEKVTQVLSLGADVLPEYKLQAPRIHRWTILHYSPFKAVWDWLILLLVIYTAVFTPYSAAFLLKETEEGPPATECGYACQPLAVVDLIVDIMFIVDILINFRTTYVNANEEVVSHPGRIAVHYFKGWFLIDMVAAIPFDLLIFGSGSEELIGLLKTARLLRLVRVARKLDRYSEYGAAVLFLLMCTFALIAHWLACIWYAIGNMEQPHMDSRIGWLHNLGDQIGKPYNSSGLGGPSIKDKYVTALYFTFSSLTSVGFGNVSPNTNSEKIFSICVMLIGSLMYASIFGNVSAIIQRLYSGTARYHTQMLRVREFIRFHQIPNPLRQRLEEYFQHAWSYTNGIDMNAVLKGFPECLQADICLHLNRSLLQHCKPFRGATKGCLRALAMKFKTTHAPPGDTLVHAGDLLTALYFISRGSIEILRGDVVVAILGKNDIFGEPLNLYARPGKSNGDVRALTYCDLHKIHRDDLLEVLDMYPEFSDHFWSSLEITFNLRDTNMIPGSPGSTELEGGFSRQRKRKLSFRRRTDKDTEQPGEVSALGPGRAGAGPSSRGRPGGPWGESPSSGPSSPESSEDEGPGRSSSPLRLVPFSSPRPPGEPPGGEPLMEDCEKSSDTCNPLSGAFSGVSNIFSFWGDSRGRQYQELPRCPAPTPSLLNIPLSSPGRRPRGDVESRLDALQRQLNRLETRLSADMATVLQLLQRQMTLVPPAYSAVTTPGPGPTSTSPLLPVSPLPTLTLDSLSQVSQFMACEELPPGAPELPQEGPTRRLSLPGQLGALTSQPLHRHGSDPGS
T1 sequence (P41146 whole entry): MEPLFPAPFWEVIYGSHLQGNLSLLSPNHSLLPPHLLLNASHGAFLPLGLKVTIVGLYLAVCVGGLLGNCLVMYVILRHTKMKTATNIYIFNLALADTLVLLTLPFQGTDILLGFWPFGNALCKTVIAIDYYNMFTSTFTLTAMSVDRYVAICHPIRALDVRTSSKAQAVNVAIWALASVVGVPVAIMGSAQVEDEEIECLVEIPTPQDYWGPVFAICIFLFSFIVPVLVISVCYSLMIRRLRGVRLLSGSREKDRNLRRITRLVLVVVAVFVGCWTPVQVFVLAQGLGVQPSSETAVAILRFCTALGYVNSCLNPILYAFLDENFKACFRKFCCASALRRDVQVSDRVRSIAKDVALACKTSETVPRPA
Sequence of Mu-type opioid receptor (P35372 whole entry): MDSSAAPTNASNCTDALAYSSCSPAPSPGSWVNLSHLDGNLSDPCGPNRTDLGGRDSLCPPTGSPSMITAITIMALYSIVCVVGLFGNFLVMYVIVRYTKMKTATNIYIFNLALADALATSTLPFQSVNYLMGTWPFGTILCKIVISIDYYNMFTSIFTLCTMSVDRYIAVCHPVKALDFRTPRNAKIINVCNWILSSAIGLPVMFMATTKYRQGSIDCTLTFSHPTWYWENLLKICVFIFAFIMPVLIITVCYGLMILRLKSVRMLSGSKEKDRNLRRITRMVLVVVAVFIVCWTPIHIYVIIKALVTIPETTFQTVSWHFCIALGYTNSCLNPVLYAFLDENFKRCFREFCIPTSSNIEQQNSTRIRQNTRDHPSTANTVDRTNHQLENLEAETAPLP
Sequence of Kappa-type opioid receptor (P41145 whole entry): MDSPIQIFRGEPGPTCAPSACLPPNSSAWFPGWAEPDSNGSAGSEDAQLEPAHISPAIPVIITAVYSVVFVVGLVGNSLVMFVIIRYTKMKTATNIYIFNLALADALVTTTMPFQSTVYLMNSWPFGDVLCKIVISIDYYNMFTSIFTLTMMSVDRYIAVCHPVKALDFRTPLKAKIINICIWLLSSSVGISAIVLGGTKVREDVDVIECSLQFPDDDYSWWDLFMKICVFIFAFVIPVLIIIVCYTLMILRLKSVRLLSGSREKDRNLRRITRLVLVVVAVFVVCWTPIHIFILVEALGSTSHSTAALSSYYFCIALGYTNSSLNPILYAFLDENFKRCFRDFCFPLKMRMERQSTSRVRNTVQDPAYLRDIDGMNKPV

Broadly, the IC50 is the midpoint of a concentration-inhibition curve. Molecule `Cc1c(CN2CCCCC2)nn(-c2ccc(Cl)cc2Cl)c1-c1ccc(Cl)cc1` came in with a half-inhibitory concentration (IC50) at Nociceptin receptor [1] of 560 nM.
In general, logD refers to the decadic logarithm of the distribution of all forms, ionised or not, between an organic phase and buffer at a given pH. Consider `Cc1ncc(-c2c(C)c(CN[C@H]3CC[C@@H](F)C3)nn2-c2ncccc2Cl)cc1F`, for which the IC50 on Mu-type opioid receptor came out at 5.6 µM; at Nociceptin receptor [2] it was 0.31 nM; in data set [3], 41 µM; in data set [4], 530 nM; on Nociceptin receptor [1] it was 0.52 nM. In data set [5], this molecule yielded a pH-dependent lipophilicity (logD) of 1.8.
For `Cc1c(CNCCC(C)C)nn(-c2ccc(Cl)cc2Cl)c1-c1ccc(Cl)cc1`, the IC50 on Nociceptin receptor [1] worked out at 150 nM.
On the same count and under the same terms, the same measure for `Cc1c(CNC2CCCCC2)nn(-c2ccc(Cl)cc2Cl)c1-c1ccc(Cl)cc1`: 75 nM; for `Cc1c(CN(C(C)C)C2CCCCC2)nn(-c2ccc(Cl)cc2Cl)c1-c1ccc(Cl)cc1`: > 1000 nM.
As to `Cc1ccc(-c2c(C)c(CNC3CCCC3)nn2-c2ncc(Cl)cc2Cl)cn1`, the IC50 at Nociceptin receptor [1] is 8.2 nM. In addition, in data set [5], the logD came out at 2.5.
Turning to `Cc1ccc(-c2c(C)c(CN[C@H]3CC[C@@H](F)C3)nn2-c2ncccc2Cl)cn1`, the IC50 at Nociceptin receptor [2] worked out at 1 nM; on Nociceptin receptor [1], 2.5 nM. The same molecule showed a logD in data set [5] of 1.3.
On to `Cc1ccc(-c2c(C)c(CNC3CCC(F)(F)C3)nn2-c2ncccc2Cl)cn1` (stereo not given), for which the IC50 turned out to be 4.5 nM at Nociceptin receptor [2], 21 µM in data set [3] and 9.3 nM on Nociceptin receptor [1]. For the same molecule, the logD in data set [5] is 2.1.
In the case of `Cc1c(CNC2CCCC2)nn(-c2ccc(Cl)cc2Cl)c1-c1ccccn1`, the IC50 at Nociceptin receptor [1] is 530 nM.
In data set [5], `Cc1c(CNC2CCCC2)nn(-c2ccc(Cl)cc2Cl)c1-c1cccnc1` showed a logD of 2.9.
With `Cc1c(CNC2CCCC2)nn(-c2ncccc2Cl)c1-c1cccnc1`, the IC50 in data set [3] was 23 µM; on Nociceptin receptor [1], 61 nM. In addition, the logD in data set [5] is 1.3.
On to `Cc1c(CNC2CCCC2)nn(-c2ncccc2Cl)c1-c1ccc(Cl)nc1`, for which the IC50 at Nociceptin receptor [2] is 12 nM; in data set [3], 2.7 µM; on Nociceptin receptor [1] it was 11 nM. For the same molecule, the logD in data set [5] stood at 2.1.
Consider `Cc1c(CNC(C)C)nn(-c2ccc(Cl)cc2Cl)c1-c1ccc(Cl)cc1`, for which the values for the IC50 (at Nociceptin receptor [2]; in data set [3]; at Nociceptin receptor [1]) were 480 nM, 0.023 µM and 350 nM, respectively.
On Nociceptin receptor [1], `Cc1c(CNC2CCCC2)nn(-c2ncccc2Cl)c1-c1ccc(C(F)(F)F)nc1` had an IC50 of 270 nM. For the same molecule, the logD in data set [5] turned out to be 2.2.
Regarding `Cc1cncc(-c2c(C)c(CNC3CCCC3)nn2-c2ncccc2Cl)c1`, the values for the IC50 (in data set [3]; on Nociceptin receptor [1]) were 9 µM and 13 nM, respectively. Also, the logD in data set [5] is 1.6.
As to `Cc1ccc(-c2c(C)c(CNC3CCCC3)nn2-c2ncccc2C)cn1`, the IC50 at Nociceptin receptor [1] was 33 nM. The molecule also yielded a logD in data set [5] of 1.2.
As for `Cc1ccc(-c2c(C)c(CNC3CCCC3)nn2-c2ncccc2S(C)(=O)=O)cn1`, the half-inhibitory concentration (IC50) on Nociceptin receptor [1] was 72 nM.
Turning to `Cc1ccc(-c2c(C)c(CNC3CCCC3)nn2-c2ncccc2Cl)cn1`, the IC50 on Nociceptin receptor [2] was 4.7 nM; in data set [3], 16 µM; on Nociceptin receptor [1], 4 nM. In addition, in data set [5], the logD amounted to 1.7.
As to `CCc1ccc(-c2c(C)c(CNC3CCCC3)nn2-c2ncccc2Cl)cn1`, on Nociceptin receptor [1], the IC50 turned out to be 67 nM. In data set [5], this molecule returned a logD of 2.
Regarding `Cc1c(CN(C)C2CCCCC2)nn(-c2ccc(Cl)cc2Cl)c1-c1ccc(Cl)cc1`, the IC50 on Nociceptin receptor [1] is > 1000 nM.
For the molecule `Cc1c(CNC2CCCC2)nn(-c2ccc(Cl)cc2Cl)c1-c1ccc(Cl)cc1`, the IC50 was found to be 0.023 µM in data set [3] and 28 nM on Nociceptin receptor [1]. The logD in data set [5] was > 4.
As to `Cc1c(CNC2CCCC2)nn(-c2ccc(Cl)cc2Cl)c1-c1ccncc1`, at Nociceptin receptor [1], the IC50 is > 1000 nM.
On to `Cc1ncc(-c2c(C)c(CNC3CCCC3)nn2-c2ncccc2Cl)cc1F`, for which the IC50 at Nociceptin receptor [2] is 1.2 nM; at Nociceptin receptor [1] it was 1.1 nM. In data set [5], this molecule had a logD of 2.1.
Turning to `Cc1ccc(-c2c(C)c(CNC3CCCC3F)nn2-c2ncccc2Cl)cn1` (stereo not given), the IC50 was 11 nM on Nociceptin receptor [2], 30 µM in data set [3] and 7.1 nM at Nociceptin receptor [1]. This molecule yielded a log distribution coefficient (logD) in data set [5] of 2.
Molecule `Cc1ccc(-c2c(C)c(CNC3CCCC3)nn2-c2ncccc2C(F)(F)F)cn1` gave an IC50 on Nociceptin receptor [1] of 36 nM. In addition, the logD in data set [5] amounted to 1.9.
On Nociceptin receptor [1], `Cc1c(CNCC(C)C)nn(-c2ccc(Cl)cc2Cl)c1-c1ccc(Cl)cc1` showed an IC50 of 150 nM.

For the origin of these results see ChEMBL document CHEMBL1136941, “Discovery of novel arylpyrazole series as potent and selective opioid receptor-like 1 (ORL1) antagonists” (Bioorg Med Chem Lett, 2009).
